Measurements published in the supplement of paper PMC10307832.

Assays:
Test in all cases: relative viability (nuclei count vs DMSO), 5 days (fraction); higher = more cells survive
[1] = compound: C1COCCN1C2=NC(=NC3=C2OC4=C3C=CC=N4)C5=CC(=CC=C5)NC(=O)C6=CN=C(C=C6)N + Cc1nc(NC(=O)N2CCC[C@H]2C(N)=O)sc1-c1ccnc(C(C)(C)C(F)(F)F)c1 [Alpelisib] (partner 2 µM)
How it was run: (§1)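 Relative viability equals treated-well nuclei counts divided by vehicle-well nuclei counts. Counts came from 4× images of lung cancer cell lines grown in 1536-well plates for 5 days after pin-tool dosing on the day after seeding. Dosing used one drug alone or a fixed anchor-drug dose plus five library-drug doses (not always all listed) in √10 steps, and values are medians of duplicate plates.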

SGI-1776 + Crizotinib = compound: CN1CCC(CNc2ccc3ncc(-c4cccc(OC(F)(F)F)c4)n3n2)CC1 [SGI-1776] + C[C@@H](Oc1cc(-c2cnn(C3CCNCC3)c2)cnc1N)c1c(Cl)ccc(F)c1Cl [Crizotinib] (partner 1 µM)
How it was run: as §1

SGI-1776 + Alpelisib = compound: CN1CCC(CNc2ccc3ncc(-c4cccc(OC(F)(F)F)c4)n3n2)CC1 [SGI-1776] + Cc1nc(NC(=O)N2CCC[C@H]2C(N)=O)sc1-c1ccnc(C(C)(C)C(F)(F)F)c1 [Alpelisib] (partner 2 µM)
How it was run: as §1

Entinostat + Alpelisib = compound: Nc1ccccc1NC(=O)c1ccc(CNC(=O)OCc2cccnc2)cc1 [Entinostat] + Cc1nc(NC(=O)N2CCC[C@H]2C(N)=O)sc1-c1ccnc(C(C)(C)C(F)(F)F)c1 [Alpelisib] (partner 2 µM)
How it was run: as §1

| Cell Line | relative viability ([1]; first compound 0.02 µM) | relative viability ([1]; first compound 0.06325 µM) | relative viability ([1]; first compound 0.2 µM) | relative viability ([1]; first compound 0.6325 µM) | relative viability ([1]; first compound 2 µM) | relative viability (SGI-1776 + Crizotinib; first compound 0.08 µM) | relative viability (SGI-1776 + Crizotinib; first compound 0.8 µM) | relative viability (SGI-1776 + Crizotinib; first compound 2.53 µM) | relative viability (SGI-1776 + Crizotinib; first compound 8 µM) | relative viability (SGI-1776 + Alpelisib; first compound 0.08 µM) | relative viability (SGI-1776 + Alpelisib; first compound 0.8 µM) | relative viability (SGI-1776 + Alpelisib; first compound 2.53 µM) | relative viability (SGI-1776 + Alpelisib; first compound 8 µM) | relative viability (Entinostat + Alpelisib; first compound 0.02 µM) | relative viability (Entinostat + Alpelisib; first compound 0.06325 µM) | relative viability (Entinostat + Alpelisib; first compound 0.2 µM) | relative viability (Entinostat + Alpelisib; first compound 0.6325 µM) | relative viability (Entinostat + Alpelisib; first compound 2 µM) |
| --- | --- | --- | --- | --- | --- | --- | --- | --- | --- | --- | --- | --- | --- | --- | --- | --- | --- | --- |
| LU99A | 0.608 | 0.46 | 0.41 | 0.379 | 0.284 | 0.621 | 0.529 | 0.549 | 0.288 | 0.614 | 0.525 | 0.552 | 0.406 | 0.517 | 0.5 | 0.546 | 0.418 | 0.324 |
| LXF-289 | 1.12 | 1.09 | 1.02 | 1 | 0.785 | 0.803 | 0.805 | 0.813 | 0.786 | 1 | 1.06 | 1.03 | 1 | 1.01 | 1.02 | 0.931 | 0.808 | 0.588 |
| NCI-H23 | 0.661 | 0.822 | 0.66 | 0.772 | 0.491 | 0.747 | 0.368 | 0.383 | 0.256 | 0.722 | 0.725 | 0.616 | 0.57 | 0.773 | 0.666 | 0.82 | 0.674 | 0.364 |
| NCI-H322M | 0.81 | 0.773 | 0.768 | 0.638 | 0.665 | 0.998 | 0.824 | 1.01 | 0.664 | 0.883 | 0.934 | 0.928 | 0.756 | 0.817 | 0.826 | 0.738 | 0.866 | 0.675 |
| NCI-H358 | 0.928 | 0.925 | 0.783 | 0.943 | 0.486 | 0.53 | 0.393 | 0.244 | 0.292 | 0.786 | 0.837 | 0.751 | 0.405 | 0.807 | 0.962 | 0.965 | 0.551 | 0.284 |
| NCI-H441 | 0.832 | 0.93 | 0.751 | 0.715 | 0.433 | 0.701 | 0.54 | 0.731 | 0.61 | 0.751 | 0.478 | 0.697 | 0.588 | 0.577 | 0.665 | 0.608 | 0.22 | 0.18 |
| NCI-H460 | 0.393 | 0.5 | 0.395 | 0.349 | 0.0947 | 0.973 | 0.573 | 0.471 | 0.0428 | 0.488 | 0.481 | 0.433 | 0.121 | 0.491 | 0.463 | 0.285 | 0.0307 | 0.0143 |
| NCI-H1395 | 1.03 | 1.03 | 0.998 | 1.45 | 0.89 | – | – | – | – | 1.09 | 1.02 | 0.996 | 0.631 | 1.09 | 1.22 | 1.02 | 0.81 | 0.522 |
| NCI-H1650 | – | – | – | – | – | 0.86 | 0.999 | 0.559 | 0.231 | – | – | – | – | – | – | – | – | – |
| NCI-H1793 | 0.812 | 0.842 | 0.655 | 0.852 | 0.59 | – | – | – | – | 0.807 | 0.808 | 0.974 | 0.602 | 0.584 | 0.79 | 0.583 | 0.621 | 0.388 |
